Assay results as given in paper PMC11191317, “PNSC928, a plant-derived compound, specifically disrupts CtBP2-p300 interaction and reduces inflammation in mice with acute respiratory distress syndrome” (Biology Direct, 2024).

Columns and labels:
[1] = target: T1, CtBP2-p300^BRD interaction (Mus musculus, UniProt B2RWS6+P56546); assay: In vitro pulldown assay with His-CtBP2 and GST-p300^BRD; format: binding; settings: PNSC928 0, 11.8, 23.6, and 47.2 µM; 80 nM GST-p300^BRD and 40 nM His-CtBP2
T1 construct: R1 (1-1000 amino acids, aa), R2 (1001–1201 aa), R3 (1202–1810 aa); made in house; host or cells: E. coli BL21
T1 sequence (B2RWS6 1001-1201 limits assumed): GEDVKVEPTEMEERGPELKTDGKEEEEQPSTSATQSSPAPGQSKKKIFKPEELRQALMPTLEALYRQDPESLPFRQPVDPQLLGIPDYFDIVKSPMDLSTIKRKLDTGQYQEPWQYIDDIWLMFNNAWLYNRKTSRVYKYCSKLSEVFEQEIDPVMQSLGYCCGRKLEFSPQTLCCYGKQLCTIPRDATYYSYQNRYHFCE
T1 sequence (P56546 whole entry, the tested form may be a part): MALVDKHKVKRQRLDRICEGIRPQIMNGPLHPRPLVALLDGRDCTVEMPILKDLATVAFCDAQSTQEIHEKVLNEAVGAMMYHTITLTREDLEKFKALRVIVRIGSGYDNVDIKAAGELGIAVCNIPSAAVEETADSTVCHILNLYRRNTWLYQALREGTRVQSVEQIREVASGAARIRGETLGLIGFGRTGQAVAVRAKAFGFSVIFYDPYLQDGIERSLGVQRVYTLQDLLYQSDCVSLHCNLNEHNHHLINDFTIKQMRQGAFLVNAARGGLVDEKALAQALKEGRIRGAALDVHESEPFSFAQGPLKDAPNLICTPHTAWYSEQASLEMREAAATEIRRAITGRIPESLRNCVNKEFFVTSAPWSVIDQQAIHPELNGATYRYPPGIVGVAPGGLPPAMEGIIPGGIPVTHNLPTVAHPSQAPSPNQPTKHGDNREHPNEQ
Experimental: Fig. 4 Identification of PNSC928 and determination of its in vitro and in vivo effects on disruption of CtBP2-p300 interaction. (A) A schematic representation illustrating four regions of the p300 amino acid sequence. (B) Co-IP results. Different combinations of plasmids were cotransfected into MPAEpiC cells. After a 48-hour incubation, cells were lysed and used for immunoprecipitation with anti-Flag agarose. The input and output proteins were probed with anti-Flag and anti-Myc antibodies. n = 3. (C) A schematic representation illustrating the in vitro AlphaScreen setup. (D) AlphaScreen signals for different concentrations of His-CtBP2 and GST-p300^BRD. (E) Chemical structure of PNSC928. (F) IC50 of PNSC928 disrupting CtBP2-p300^BRD interaction. (G and H) In vitro pulldown assay in a reaction consisting of His-CtBP2, GST-p300^BRD, and incremental concentrations of PNSC928 (0, 11.8, 23.6, and 47.2 µM). (G) Pulldown with Ni-NTA beads; (H) Pulldown with GST beads.
(§1) To probe this interaction, we established an AlphaScreen system that utilized GST-p300^BRD and His-CtBP2, binding to donor and acceptor beads, respectively (Fig. 4C). […] In vitro assays assessed the effects of PNSC928 on the CtBP2-p300^BRD interaction. […] Furthermore, we assessed the impact of combined LPS and PNSC928 treatment on the expression of key molecules in the NF-κB signaling pathway.

[2] = target: T1, CtBP2-p300^BRD interaction; assay: AlphaScreen of GST-p300^BRD and His-CtBP2 interaction; format: binding
Experimental: Plasmids pGEX-6P-1-p300^BRD and pET-28a-CtBP2 (Table S2) were transformed into BL21 competent cells. Upon 1 mM isopropyl β-d-1-thiogalactopyranoside (IPTG) induction, GST-p300BRD and His-CtBP2 proteins were isolated via Glutathione Agarose Beads (Thermo Fisher; #16,100) and Ni-NTA Agarose (Thermo Fisher; #R90115), respectively. A comprehensive small molecule library of 4313 compounds derived from various botanical sources, including Lonicera japonica, Forsythia suspense, Houttuynia cordata, Coptis chinensis, Phellodendron, Pulsatilla chinensis, Lygodium japonicum, Plantago asiatica, and Portulaca olerace, was analyzed through mass spectrometry. […] Post addition of 5 µM from each botanical molecule and a 2-hour incubation at 25 °C, the resultant AlphaScreen signals from 96-well plates (PerkinElmer, #6,008,350) were deciphered with an Envision Multilabel Reader (PerkinElmer, #2105-0010).
as §1

## CC(=CCCC1=CCC(C2COC(=O)C2)OC1O)CCC1=C(C)CCCC1(C)C (stereo not drawn) [PNSC928]
[1]
  Effect on CtBP2-p300^BRD interaction in pulldown assay: disrupts the CtBP2-p300^BRD interaction in a dose-dependent manner
[2]; high-throughput screening, 5 µM compound, signal reduced from 17,500
  Alpha signal: 489
[2]; read-out: IC50 disrupting CtBP2-p300^BRD interaction
  IC50: 23.6 ± 3.1 µM
